Consider seven molecules from ChEMBL document CHEMBL6115030, “Systematic All-Hydrocarbon Stapling Analysis for Cecropin A Generates a Potent and Stable Antimicrobial Peptide” (J Med Chem, 2025).

Holding throughout (format): functional
One test concerns Pseudomonas aeruginosa. Nature of the test: Antibacterial activity against Pseudomonas aeruginosa PAO1 assessed as inhibition of bacterial growth measured after 24 hrs by broth microdilution method. A general note: In broth dilution the organism is exposed to a series of concentrations in liquid medium.
The next test concerns Klebsiella pneumoniae. Nature of the test: Antibacterial activity against Klebsiella pneumoniae ATCC 13883 assessed as inhibition of bacterial growth measured after 24 hrs by broth microdilution method.
A further test relates to Staphylococcus aureus. The test can be described thus: Antibacterial activity against Staphylococcus aureus ATCC 25923 assessed as inhibition of bacterial growth measured after 24 hrs by broth microdilution method.

The term MIC denotes the lowest concentration found to suppress growth.

≈ marks a conversion by molar mass, not a printed value. Bridge positions count the residues as written; N and C are the ends. Square brackets hold non-standard residues; d marks the D form. Peptide text beside a SMILES is read from it. R5 = C=CCCC[C@@](C)(N)C(=O)O; S5 = C=CCCC[C@](C)(N)C(=O)O

As to `CC[C@H](C)[C@H](NC(=O)CNC(=O)[C@H](CC(=O)O)NC(=O)[C@H](CCCNC(=N)N)NC(=O)[C@@H](NC(=O)[C@H](CC(N)=O)NC(=O)[C@H](CCC(N)=O)NC(=O)CNC(=O)[C@@H](NC(=O)[C@H](CCCCN)NC(=O)[C@H](CCC(=O)O)NC(=O)[C@@H](NC(=O)[C@H](CCCCN)NC(=O)[C@H](CCCCN)NC(=O)[C@H](Cc1ccccc1)NC(=O)[C@H](CC(C)C)NC(=O)[C@H](CCCCN)NC(=O)[C@H](Cc1c[nH]c2ccccc12)NC(=O)[C@H](CCCCN)NC(C)=O)[C@@H](C)CC)C(C)C)[C@@H](C)CC)C(=O)N[C@H](C(=O)N[C@@H](CCCCN)C(=O)N[C@@H](C)C(=O)NCC(=O)N1CCC[C@H]1C(=O)N[C@@H](C)C(=O)N[C@H](C(=O)N[C@@]1(C)CCC/C=C\CCC[C@@](C)(C(=O)N[C@@H](C)C(=O)N[C@H](C(=O)N[C@@H](CCC(N)=O)C(=O)N[C@H](C(=O)N[C@@H](C)C(=O)N[C@@H](CCCCN)C(N)=O)[C@@H](C)CC)[C@@H](C)O)NC(=O)CNC(=O)[C@H](C(C)C)NC(=O)[C@H](C(C)C)NC1=O)C(C)C)[C@@H](C)CC` (Ac-KWKLFKKIEKVGQNIRDGIIKAGPAV[S5]VVG[S5]ATQIAK-NH2; staple (Z) 27-31), the MIC worked out at 6.25 µM (≈ 25.6 µg/mL) in the test on Pseudomonas aeruginosa, 6.25 µM (≈ 25.6 µg/mL) in the test with Klebsiella pneumoniae and 3.13 µM (≈ 12.8 µg/mL) with Staphylococcus aureus.

For the molecule `CC[C@H](C)[C@H](NC(=O)[C@H](CCC(N)=O)NC(=O)[C@@H](NC(=O)[C@H](C)NC(=O)[C@H](CCC(N)=O)NC(=O)CNC(=O)[C@@H](NC(=O)[C@@H](NC(=O)[C@H](C)NC(=O)[C@@H](NC(=O)[C@H](C)NC(=O)[C@@H]1CCCN1C(=O)CNC(=O)[C@H](C)NC(=O)[C@H](CCCCN)NC(=O)[C@@H](NC(=O)[C@@H](NC(=O)[C@]1(C)CCC/C=C\CCC[C@](C)(NC(=O)[C@H](CCC(N)=O)NC(=O)CNC(=O)[C@@H](NC(=O)[C@H](CCCCN)NC(=O)[C@H](CCC(=O)O)NC(=O)[C@@H](NC(=O)[C@H](CCCCN)NC(=O)[C@H](CCCCN)NC(=O)[C@H](Cc2ccccc2)NC(=O)[C@H](CC(C)C)NC(=O)[C@H](CCCCN)NC(=O)[C@H](Cc2c[nH]c3ccccc23)NC(=O)[C@H](CCCCN)NC(C)=O)[C@@H](C)CC)C(C)C)C(=O)N[C@@H]([C@@H](C)CC)C(=O)N[C@@H](CCCNC(=N)N)C(=O)N[C@@H](CC(=O)O)C(=O)N1)[C@@H](C)CC)[C@@H](C)CC)C(C)C)C(C)C)C(C)C)[C@@H](C)O)C(=O)N[C@@H](C)C(=O)N[C@@H](CCCCN)C(N)=O` (Ac-KWKLFKKIEKVGQ[S5]IRD[S5]IIKAGPAVAVVGQATQIAK-NH2; staple (Z) 14-18), the MIC in the test on Pseudomonas aeruginosa, in the test on Klebsiella pneumoniae and in the test with Staphylococcus aureus was more than 100 µM each time.

For the molecule `CC[C@H](C)[C@H](NC(=O)CNC(=O)[C@H](CC(=O)O)NC(=O)[C@H](CCCNC(=N)N)NC(=O)[C@@H](NC(=O)[C@H](CC(N)=O)NC(=O)[C@H](CCC(N)=O)NC(=O)[C@]1(C)CCC/C=C\CCC[C@](C)(NC(=O)[C@H](CCCCN)NC(=O)[C@H](CCCCN)NC(=O)[C@H](Cc2ccccc2)NC(=O)[C@H](CC(C)C)NC(=O)[C@H](CCCCN)NC(=O)[C@H](Cc2c[nH]c3ccccc23)NC(=O)[C@H](CCCCN)NC(C)=O)C(=O)N[C@@H](CCC(=O)O)C(=O)N[C@@H](CCCCN)C(=O)N[C@@H](C(C)C)C(=O)N1)[C@@H](C)CC)C(=O)N[C@H](C(=O)N[C@@H](CCCCN)C(=O)N[C@@H](C)C(=O)NCC(=O)N1CCC[C@H]1C(=O)N[C@@H](C)C(=O)N[C@H](C(=O)N[C@@H](C)C(=O)N[C@H](C(=O)N[C@H](C(=O)NCC(=O)N[C@@H](CCC(N)=O)C(=O)N[C@@H](C)C(=O)N[C@H](C(=O)N[C@@H](CCC(N)=O)C(=O)N[C@H](C(=O)N[C@@H](C)C(=O)N[C@@H](CCCCN)C(N)=O)[C@@H](C)CC)[C@@H](C)O)C(C)C)C(C)C)C(C)C)[C@@H](C)CC` (Ac-KWKLFKK[S5]EKV[S5]QNIRDGIIKAGPAVAVVGQATQIAK-NH2; staple (Z) 8-12), the MIC with Pseudomonas aeruginosa is more than 100 µM; in the test with Klebsiella pneumoniae it was 6.25 µM (≈ 25.8 µg/mL); in the test with Staphylococcus aureus it was 6.25 µM (≈ 25.8 µg/mL).

As to `CC[C@H](C)[C@@H]1NC(=O)CNC(=O)[C@](C)(NC(=O)[C@H](CCCNC(=N)N)NC(=O)[C@@H](NC(=O)[C@H](CC(N)=O)NC(=O)[C@H](CCC(N)=O)NC(=O)CNC(=O)[C@@H](NC(=O)[C@H](CCCCN)NC(=O)[C@H](CCC(=O)O)NC(=O)[C@@H](NC(=O)[C@H](CCCCN)NC(=O)[C@H](CCCCN)NC(=O)[C@H](Cc2ccccc2)NC(=O)[C@H](CC(C)C)NC(=O)[C@H](CCCCN)NC(=O)[C@H](Cc2c[nH]c3ccccc23)NC(=O)[C@H](CCCCN)NC(C)=O)[C@@H](C)CC)C(C)C)[C@@H](C)CC)CCC/C=C\CCC[C@](C)(C(=O)N[C@@H](C)C(=O)NCC(=O)N2CCC[C@H]2C(=O)N[C@@H](C)C(=O)N[C@H](C(=O)N[C@@H](C)C(=O)N[C@H](C(=O)N[C@H](C(=O)NCC(=O)N[C@@H](CCC(N)=O)C(=O)N[C@@H](C)C(=O)N[C@H](C(=O)N[C@@H](CCC(N)=O)C(=O)N[C@H](C(=O)N[C@@H](C)C(=O)N[C@@H](CCCCN)C(N)=O)[C@@H](C)CC)[C@@H](C)O)C(C)C)C(C)C)C(C)C)NC(=O)[C@H]([C@@H](C)CC)NC1=O` (Ac-KWKLFKKIEKVGQNIR[R5]GII[R5]AGPAVAVVGQATQIAK-NH2; staple (Z) 17-21), the values for the MIC with Pseudomonas aeruginosa, in the test with Klebsiella pneumoniae and with Staphylococcus aureus were more than 100 µM, 25 µM (≈ 101 µg/mL) and 6.25 µM (≈ 25.3 µg/mL), respectively.

Regarding `CC[C@H](C)[C@H](NC(=O)CNC(=O)[C@H](CC(=O)O)NC(=O)[C@H](CCCNC(=N)N)NC(=O)[C@@H](NC(=O)[C@H](CC(N)=O)NC(=O)[C@H](CCC(N)=O)NC(=O)CNC(=O)[C@@H](NC(=O)[C@H](CCCCN)NC(=O)[C@H](CCC(=O)O)NC(=O)[C@@H](NC(=O)[C@]1(C)CCC/C=C\CCC[C@](C)(NC(=O)[C@H](Cc2c[nH]c3ccccc23)NC(=O)[C@H](CCCCN)NC(C)=O)C(=O)N[C@@H](CC(C)C)C(=O)N[C@@H](Cc2ccccc2)C(=O)N[C@@H](CCCCN)C(=O)N1)[C@@H](C)CC)C(C)C)[C@@H](C)CC)C(=O)N[C@H](C(=O)N[C@@H](CCCCN)C(=O)N[C@@H](C)C(=O)NCC(=O)N1CCC[C@H]1C(=O)N[C@@H](C)C(=O)N[C@H](C(=O)N[C@@H](C)C(=O)N[C@H](C(=O)N[C@H](C(=O)NCC(=O)N[C@@H](CCC(N)=O)C(=O)N[C@@H](C)C(=O)N[C@H](C(=O)N[C@@H](CCC(N)=O)C(=O)N[C@H](C(=O)N[C@@H](C)C(=O)N[C@@H](CCCCN)C(N)=O)[C@@H](C)CC)[C@@H](C)O)C(C)C)C(C)C)C(C)C)[C@@H](C)CC` (Ac-KW[S5]LFK[S5]IEKVGQNIRDGIIKAGPAVAVVGQATQIAK-NH2; staple (Z) 3-7), the MIC with Pseudomonas aeruginosa, with Klebsiella pneumoniae and in the test on Staphylococcus aureus was more than 100 µM throughout.

In the case of `CC[C@H](C)[C@H](NC(=O)CNC(=O)[C@H](CC(=O)O)NC(=O)[C@H](CCCNC(=N)N)NC(=O)[C@@H](NC(=O)[C@H](CC(N)=O)NC(=O)[C@H](CCC(N)=O)NC(=O)CNC(=O)[C@@H](NC(=O)[C@H](CCCCN)NC(=O)[C@H](CCC(=O)O)NC(=O)[C@@H](NC(=O)[C@H](CCCCN)NC(=O)[C@]1(C)CCC/C=C\CCC[C@](C)(NC(=O)[C@H](CCCCN)NC(C)=O)C(=O)N[C@@H](CCCCN)C(=O)N[C@@H](CC(C)C)C(=O)N[C@@H](Cc2ccccc2)C(=O)N1)[C@@H](C)CC)C(C)C)[C@@H](C)CC)C(=O)N[C@H](C(=O)N[C@@H](CCCCN)C(=O)N[C@@H](C)C(=O)NCC(=O)N1CCC[C@H]1C(=O)N[C@@H](C)C(=O)N[C@H](C(=O)N[C@@H](C)C(=O)N[C@H](C(=O)N[C@H](C(=O)NCC(=O)N[C@@H](CCC(N)=O)C(=O)N[C@@H](C)C(=O)N[C@H](C(=O)N[C@@H](CCC(N)=O)C(=O)N[C@H](C(=O)N[C@@H](C)C(=O)N[C@@H](CCCCN)C(N)=O)[C@@H](C)CC)[C@@H](C)O)C(C)C)C(C)C)C(C)C)[C@@H](C)CC` (Ac-K[S5]KLF[S5]KIEKVGQNIRDGIIKAGPAVAVVGQATQIAK-NH2; staple (Z) 2-6), the MIC with Pseudomonas aeruginosa, in the test on Klebsiella pneumoniae and in the test with Staphylococcus aureus was more than 100 µM each time.

As to `CC[C@H](C)[C@H](NC(=O)CNC(=O)[C@]1(C)CCC/C=C\CCC[C@](C)(NC(=O)CNC(=O)[C@@H](NC(=O)[C@H](CCCCN)NC(=O)[C@H](CCC(=O)O)NC(=O)[C@@H](NC(=O)[C@H](CCCCN)NC(=O)[C@H](CCCCN)NC(=O)[C@H](Cc2ccccc2)NC(=O)[C@H](CC(C)C)NC(=O)[C@H](CCCCN)NC(=O)[C@H](Cc2c[nH]c3ccccc23)NC(=O)[C@H](CCCCN)NC(C)=O)[C@@H](C)CC)C(C)C)C(=O)N[C@@H](CC(N)=O)C(=O)N[C@@H]([C@@H](C)CC)C(=O)N[C@@H](CCCNC(=N)N)C(=O)N1)C(=O)N[C@H](C(=O)N[C@@H](CCCCN)C(=O)N[C@@H](C)C(=O)NCC(=O)N1CCC[C@H]1C(=O)N[C@@H](C)C(=O)N[C@H](C(=O)N[C@@H](C)C(=O)N[C@H](C(=O)N[C@H](C(=O)NCC(=O)N[C@@H](CCC(N)=O)C(=O)N[C@@H](C)C(=O)N[C@H](C(=O)N[C@@H](CCC(N)=O)C(=O)N[C@H](C(=O)N[C@@H](C)C(=O)N[C@@H](CCCCN)C(N)=O)[C@@H](C)CC)[C@@H](C)O)C(C)C)C(C)C)C(C)C)[C@@H](C)CC` (Ac-KWKLFKKIEKVG[S5]NIR[S5]GIIKAGPAVAVVGQATQIAK-NH2; staple (Z) 13-17), the figures for the MIC in the test with Pseudomonas aeruginosa, with Klebsiella pneumoniae and in the test with Staphylococcus aureus were 100 µM (≈ 405 µg/mL), 6.25 µM (≈ 25.3 µg/mL) and 50 µM (≈ 203 µg/mL), respectively.
